Test results: publication PMC6936879, “Inhibiting the copper efflux system in microbes as a novel approach for developing antibiotics” (PLoS ONE, 2019)

Tested on: E. coli (BL21;DE3)
Experiment: E. coli viability assay (LIVE/DEAD fluorescence imaging)
Type: cell-based
Details: peptide 125 μM; LIVE/DEAD staining, M9 medium, confocal imaging, cell counts with ImageJ; mean ± SE, n = 3
Description: E. coli (BL21;DE3) were dyed using the L7007 LIVE/DEAD Bacterial Viability kit (Molecular Probes, Eugene OR, USA); microbes were grown in M9 medium. Images were acquired on a Leica SP8 confocal microscope, running LASX acquisition software. The magnification consisted of a 63 X 1.4 NA objective. Microbes were counted using ImageJ software. Error calculations were based on three repetitions, with each experiment scanned at nine different tiles—all together, 27 repetitions.
Live/dead fluorescence cell imaging experiments were used to indicate bacterial viability when incubated with the peptides. This method also helped to determine whether the decrease in the growth rate described above resulted from deceleration in E. coli growth or its substantial death. E coli were grown to the late […] phase (according to the growth rate lines; Figs B to D in S1 File) in the presence of the peptides in poor medium (M9), which mostly resembles physiological conditions.[52–54] Glucose levels in the growth media were sufficient to prevent bacterial viability loss due to lack of nutrition, yet not too high to positively affect its viability. […] However, the effect of the peptides was not as substantial as the commercially available antibiotic kanamycin. […] 5 ± 4.3% and up to 45.3 ± 4.3% reduction at a concentration of 125 μM.
Fig 4 Effect of the test peptides on E. coli viability. […]

**Q.** AKIQG [pep8] was tested. Which “reduction of bacterial viability” value did it give?
**A.** 41 ±5.15%
